Test results reported in paper PMC5218480 (PLoS ONE, 2017).

Test system: MV-4-11 cells
Experiment: Gene expression microarray analysis (Affymetrix PrimeView) and GSEA
Assay type: cell-based, human
Parameters: RFU PODN (11730768_x_at) / Fold change /veh PODN (11730768_x_at) / RFU LINC00158 (11744669_a_at) / Fold change /veh LINC00158 (11744669_a_at) / RFU DUSP10 (11751237_a_at) / Fold change /veh DUSP10 (11751237_a_at) / RFU ID3 (11757404_x_at) / Fold change /veh ID3 (11757404_x_at) / RFU PLEKHG5 (11737974_s_at) / Fold change /veh PLEKHG5 (11737974_s_at) / RFU LRRC4B (11730491_at) / Fold change /veh LRRC4B (11730491_at) / RFU GIMAP4 (11747438_a_at) / Fold change /veh GIMAP4 (11747438_a_at) / RFU KRT8 (11758183_x_at) / Fold change /veh KRT8 (11758183_x_at) / RFU CNN1 (11734310_a_at) / Fold change /veh CNN1 (11734310_a_at) / RFU VPS37D (11726825_at) / Fold change /veh VPS37D (11726825_at) / RFU C10orf10 (11716522_x_at) / Fold change /veh C10orf10 (11716522_x_at) / RFU KIR2DL2 /// KIR2DL4 /// KIR2DL5A /// KIR2DL5B /// KIR2DS1 /// KIR2DS2 /// KIR2DS3 /// KIR2DS4 /// KIR3DL3 /// KIR3DL3 /// KIR3DS1 (11738374_at) / Fold change /veh KIR2DL2 /// KIR2DL4 /// KIR2DL5A /// KIR2DL5B /// KIR2DS1 /// KIR2DS2 /// KIR2DS3 /// KIR2DS4 /// KIR3DL3 /// KIR3DL3 /// KIR3DS1 (11738374_at) / RFU C1QL1 (11718748_at) / Fold change /veh C1QL1 (11718748_at) / RFU TMPRSS4 (11747572_a_at) / Fold change /veh TMPRSS4 (11747572_a_at) / RFU HAMP (11756126_x_at) / Fold change /veh HAMP (11756126_x_at) / RFU RNFT2 (11725882_a_at) / Fold change /veh RNFT2 (11725882_a_at) / RFU NR4A2 (11747474_a_at) / Fold change /veh NR4A2 (11747474_a_at) / RFU ABCC12 (11746883_a_at) / Fold change /veh ABCC12 (11746883_a_at) / RFU TMEM136 (11760407_x_at) / Fold change /veh TMEM136 (11760407_x_at) / RFU CLDN22 /// WWC2 (11732394_at) / Fold change /veh CLDN22 /// WWC2 (11732394_at) / RFU HLA-DPB1 (11760878_x_at) / Fold change /veh HLA-DPB1 (11760878_x_at) / RFU SPINT1 (11716480_a_at) / Fold change /veh SPINT1 (11716480_a_at) / RFU GAP43 (11754022_s_at) / Fold change /veh GAP43 (11754022_s_at) / RFU A4GNT (11735810_at) / Fold change /veh A4GNT (11735810_at) / RFU PRB3 (11715151_x_at) / Fold change /veh PRB3 (11715151_x_at) / RFU TUBB4B (11761932_at) / Fold change /veh TUBB4B (11761932_at) / RFU CAPN14 (11732068_a_at) / Fold change /veh CAPN14 (11732068_a_at) / RFU TMCC2 (11721928_a_at) / Fold change /veh TMCC2 (11721928_a_at) / RFU IRGQ (11745062_a_at) / Fold change /veh IRGQ (11745062_a_at) / RFU FAM174B (11720279_a_at) / Fold change /veh FAM174B (11720279_a_at) / RFU TMPRSS4 (11748680_a_at) / Fold change /veh TMPRSS4 (11748680_a_at) / RFU FAM212B (11763350_a_at) / Fold change /veh FAM212B (11763350_a_at) / RFU PLEKHG5 (11743358_a_at) / Fold change /veh PLEKHG5 (11743358_a_at) / RFU ZSCAN30 (11745921_a_at) / Fold change /veh ZSCAN30 (11745921_a_at) / RFU CMKLR1 (11741424_a_at) / Fold change /veh CMKLR1 (11741424_a_at) / RFU LOC101060620 /// MAPK8IP1 (11723275_at) / Fold change /veh LOC101060620 /// MAPK8IP1 (11723275_at) / RFU SPTSSB (11747773_x_at) / Fold change /veh SPTSSB (11747773_x_at) / RFU PRSS12 (11739890_at) / Fold change /veh PRSS12 (11739890_at) / RFU BIN1 (11741810_x_at) / Fold change /veh BIN1 (11741810_x_at) / RFU WNT11 (11732464_a_at) / Fold change /veh WNT11 (11732464_a_at) / RFU C10orf10 (11716521_a_at) / Fold change /veh C10orf10 (11716521_a_at) / RFU C5orf56 (11738089_at) / Fold change /veh C5orf56 (11738089_at) / RFU CYB561 (11721691_x_at) / Fold change /veh CYB561 (11721691_x_at) / RFU ANKRD19P (11752326_a_at) / Fold change /veh ANKRD19P (11752326_a_at) / RFU OR2T12 /// OR2T33 /// OR2T8 (11738714_s_at) / Fold change /veh OR2T12 /// OR2T33 /// OR2T8 (11738714_s_at) / RFU VCAN (11748164_a_at) / Fold change /veh VCAN (11748164_a_at) / RFU JSRP1 (11732532_at) / Fold change /veh JSRP1 (11732532_at) / RFU KRTAP10-11 (11738290_x_at) / Fold change /veh KRTAP10-11 (11738290_x_at) / RFU MYO3A (11730013_a_at) / Fold change /veh MYO3A (11730013_a_at) / RFU EBF3 (11725865_a_at) / Fold change /veh EBF3 (11725865_a_at) / RFU CAMK2N1 (11719241_x_at) / Fold change /veh CAMK2N1 (11719241_x_at) / RFU C5orf56 (11738088_a_at) / Fold change /veh C5orf56 (11738088_a_at) / RFU OLFML3 (11715873_a_at) / Fold change /veh OLFML3 (11715873_a_at) / RFU LOC100653217 /// NTM (11731650_a_at) / Fold change /veh LOC100653217 /// NTM (11731650_a_at) / RFU MAPK11 (11762145_a_at) / Fold change /veh MAPK11 (11762145_a_at) / RFU FIZ1 (11724087_x_at) / Fold change /veh FIZ1 (11724087_x_at) / RFU OASL (11726364_x_at) / Fold change /veh OASL (11726364_x_at) / RFU SOX15 (11748057_x_at) / Fold change /veh SOX15 (11748057_x_at) / RFU CD79A (11719716_a_at) / Fold change /veh CD79A (11719716_a_at) / RFU HIST1H1D (11736915_at) / Fold change /veh HIST1H1D (11736915_at) / RFU CASKIN2 (11723855_a_at) / Fold change /veh CASKIN2 (11723855_a_at) / RFU LOC730098 (11760151_x_at) / Fold change /veh LOC730098 (11760151_x_at) / RFU OR4N2 (11742367_at) / Fold change /veh OR4N2 (11742367_at) / RFU PRRT2 (11749266_a_at) / Fold change /veh PRRT2 (11749266_a_at) / RFU SNX32 (11753110_a_at) / Fold change /veh SNX32 (11753110_a_at) / RFU CDHR5 (11726645_a_at) / Fold change /veh CDHR5 (11726645_a_at) / RFU RCAN1 (11760418_a_at) / Fold change /veh RCAN1 (11760418_a_at) / RFU FAM167A (11723789_a_at) / Fold change /veh FAM167A (11723789_a_at) / RFU FAM26E (11764081_at) / Fold change /veh FAM26E (11764081_at) / RFU ISYNA1 (11749810_s_at) / Fold change /veh ISYNA1 (11749810_s_at) / RFU ACY1 (11761880_at) / Fold change /veh ACY1 (11761880_at) / RFU 11764098_at / Fold change /veh 11764098_at / RFU SAMD14 (11745864_x_at) / Fold change /veh SAMD14 (11745864_x_at) / RFU NPB (11741838_a_at) / Fold change /veh NPB (11741838_a_at) / RFU TMPRSS6 (11731388_a_at) / Fold change /veh TMPRSS6 (11731388_a_at) / RFU KRTAP10-2 (11738614_at) / Fold change /veh KRTAP10-2 (11738614_at) / RFU ARHGAP8 /// PRR5-ARHGAP8 (11727945_x_at) / Fold change /veh ARHGAP8 /// PRR5-ARHGAP8 (11727945_x_at) / RFU KRTAP5-7 /// NADSYN1 (11734609_at) / Fold change /veh KRTAP5-7 /// NADSYN1 (11734609_at) / RFU RASL12 (11751679_a_at) / Fold change /veh RASL12 (11751679_a_at) / RFU CDKN2B (11736163_a_at) / Fold change /veh CDKN2B (11736163_a_at) / RFU PRF1 (11729649_at) / Fold change /veh PRF1 (11729649_at) / RFU, ZNF638 /// ZNF638-IT1 / Fold change vs veh, ZNF638 /// ZNF638-IT1 / RFU, PANK3 / Fold change vs veh, PANK3 / RFU, SH3YL1 / Fold change vs veh, SH3YL1 / RFU, ZEB2 / Fold change vs veh, ZEB2 / RFU, NRIP1 / Fold change vs veh, NRIP1 / RFU, PTTG1IP / Fold change vs veh, PTTG1IP / RFU, CAPN2 / Fold change vs veh, CAPN2 / RFU, MED14 / Fold change vs veh, MED14 / RFU, SNORA58 / Fold change vs veh, SNORA58 / RFU, C1orf63 / Fold change vs veh, C1orf63 / RFU, LRRFIP1 / Fold change vs veh, LRRFIP1 / RFU, NDUFAF7 / Fold change vs veh, NDUFAF7 / RFU, SLC12A2 / Fold change vs veh, SLC12A2 / RFU, IBTK / Fold change vs veh, IBTK / RFU, ESF1 / Fold change vs veh, ESF1 / Fold change vs veh, TMEM50B / RFU, TAOK1 / Fold change vs veh, TAOK1 / RFU, ACBD3 / Fold change vs veh, ACBD3 / RFU, TMA16 / Fold change vs veh, TMA16 / RFU, RWDD3 / Fold change vs veh, RWDD3 / RFU, BCAT1 / Fold change vs veh, BCAT1 / RFU, EDEM3 / Fold change vs veh, EDEM3 / RFU, TMEM33 / Fold change vs veh, TMEM33 / RFU, WDR75 / Fold change vs veh, WDR75 / RFU, AHCTF1 / Fold change vs veh, AHCTF1 / RFU, TFRC / Fold change vs veh, TFRC / RFU, ZDHHC17 / Fold change vs veh, ZDHHC17 / RFU, NOM1 / Fold change vs veh, NOM1 / RFU, ARL8B / Fold change vs veh, ARL8B / RFU, ZBTB11 / Fold change vs veh, ZBTB11 / RFU, TAMM41 / Fold change vs veh, TAMM41 / RFU, KIAA1704 /// LOC100996395 / Fold change vs veh, KIAA1704 /// LOC100996395 / RFU, ING1 / Fold change vs veh, ING1 / RFU, TRMT61B / Fold change vs veh, TRMT61B / RFU, FUBP3 / Fold change vs veh, FUBP3 / RFU, TP53 / Fold change vs veh, TP53 / RFU, TNKS2 / Fold change vs veh, TNKS2 / RFU, ZFP14 / Fold change vs veh, ZFP14 / RFU, ACTR2 / Fold change vs veh, ACTR2 / RFU, PPP3R1 / Fold change vs veh, PPP3R1 / RFU, PIK3R1 / Fold change vs veh, PIK3R1 / RFU, HNRNPA1 / Fold change vs veh, HNRNPA1 / RFU, RNF170 / Fold change vs veh, RNF170 / RFU, ZNF28 / Fold change vs veh, ZNF28 / RFU, RNGTT / Fold change vs veh, RNGTT / RFU, OGT / Fold change vs veh, OGT / RFU, BRD1 / Fold change vs veh, BRD1 / RFU, MARS / Fold change vs veh, MARS / RFU, ZNF655 / Fold change vs veh, ZNF655 / RFU, FAHD1 / Fold change vs veh, FAHD1 / RFU, BDP1 / Fold change vs veh, BDP1 / RFU, LRRCC1 / Fold change vs veh, LRRCC1 / RFU, ARID1A / Fold change vs veh, ARID1A / RFU, ZNF146 / Fold change vs veh, ZNF146 / RFU, ZNF330 / Fold change vs veh, ZNF330 / RFU, GPN3 / Fold change vs veh, GPN3 / RFU, C9orf123 / Fold change vs veh, C9orf123 / RFU, N4BP2L2 / Fold change vs veh, N4BP2L2 / RFU, ARFIP1 / Fold change vs veh, ARFIP1 / RFU, FAM179B / Fold change vs veh, FAM179B / RFU, BCL10 / Fold change vs veh, BCL10 / RFU, UHRF1BP1L / Fold change vs veh, UHRF1BP1L / RFU, BET1 / Fold change vs veh, BET1 / RFU, CNOT2 / Fold change vs veh, CNOT2 / RFU, ZNF268 / Fold change vs veh, ZNF268 / Fold change vs veh, ZNF507 / RFU, DGCR2 / Fold change vs veh, DGCR2 / RFU, WDSUB1 / Fold change vs veh, WDSUB1 / Fold change vs veh, HSP90B1 /// MIR3652 / RFU, ADSS / Fold change vs veh, ADSS / RFU, GK / Fold change vs veh, GK / RFU, ZNF148 / Fold change vs veh, ZNF148 / RFU, TAF9 / Fold change vs veh, TAF9 / RFU, SLC1A5 / Fold change vs veh, SLC1A5 / RFU, SLMO2 / Fold change vs veh, SLMO2 / RFU, ABCC4 / Fold change vs veh, ABCC4 / RFU, LOC101060439 /// RAP1B / Fold change vs veh, LOC101060439 /// RAP1B / RFU, RFX7 / Fold change vs veh, RFX7 / RFU, GTPBP10 / Fold change vs veh, GTPBP10 / RFU, CNEP1R1 / Fold change vs veh, CNEP1R1 / RFU, BIVM-ERCC5 /// ERCC5 / Fold change vs veh, BIVM-ERCC5 /// ERCC5 / RFU, ILF3 / Fold change vs veh, ILF3 / RFU 11762660_at / Fold change /veh 11762660_at / RFU VCAN (11757783_s_at) / Fold change /veh VCAN (11757783_s_at) / RFU DDX43 (11728927_at) / Fold change /veh DDX43 (11728927_at) / RFU KRT8 (11758188_x_at) / Fold change /veh KRT8 (11758188_x_at) / RFU NKD1 (11759106_at) / Fold change /veh NKD1 (11759106_at) / RFU SRD5A1 (11742802_a_at) / Fold change /veh SRD5A1 (11742802_a_at) / RFU TPSAB1 /// TPSB2 (11721975_s_at) / Fold change /veh TPSAB1 /// TPSB2 (11721975_s_at) / RFU GSTM3 (11746129_a_at) / Fold change /veh GSTM3 (11746129_a_at) / RFU IL23R (11737362_x_at) / Fold change /veh IL23R (11737362_x_at) / RFU TMEM51 (11727254_a_at) / Fold change /veh TMEM51 (11727254_a_at) / RFU PIWIL2 (11732686_x_at) / Fold change /veh PIWIL2 (11732686_x_at) / RFU ORM1 (11744905_x_at) / Fold change /veh ORM1 (11744905_x_at) / RFU CCDC152 (11743942_at) / Fold change /veh CCDC152 (11743942_at) / RFU ECM1 (11717891_a_at) / Fold change /veh ECM1 (11717891_a_at) / RFU IL23R (11748794_a_at) / Fold change /veh IL23R (11748794_a_at) / RFU TNFAIP8L3 (11732012_x_at) / Fold change /veh TNFAIP8L3 (11732012_x_at) / RFU MBOAT4 (11741988_at) / Fold change /veh MBOAT4 (11741988_at) / RFU 11764193_at / Fold change /veh 11764193_at / RFU TMEM53 (11763286_at) / Fold change /veh TMEM53 (11763286_at) / RFU MAGEB2 (11727129_at) / Fold change /veh MAGEB2 (11727129_at) / RFU TMEM200A (11744735_a_at) / Fold change /veh TMEM200A (11744735_a_at) / RFU CCDC152 (11751479_a_at) / Fold change /veh CCDC152 (11751479_a_at) / RFU FAM211A (11726209_a_at) / Fold change /veh FAM211A (11726209_a_at) / RFU RGS16 (11746705_a_at) / Fold change /veh RGS16 (11746705_a_at) / RFU VCAN (11755009_s_at) / Fold change /veh VCAN (11755009_s_at) / RFU RHOB (11743442_s_at) / Fold change /veh RHOB (11743442_s_at) / RFU RGS16 (11720943_a_at) / Fold change /veh RGS16 (11720943_a_at) / RFU RGS16 (11720944_at) / Fold change /veh RGS16 (11720944_at) / RFU, VPS4B / Fold change vs veh, VPS4B / RFU, CREB1 / Fold change vs veh, CREB1 / RFU, DNAJC13 / Fold change vs veh, DNAJC13 / RFU, GNAQ / Fold change vs veh, GNAQ / RFU, CDK5R1 / Fold change vs veh, CDK5R1 / RFU, ZRANB3 / Fold change vs veh, ZRANB3 / RFU, CUL4A / Fold change vs veh, CUL4A / RFU, CCNY / Fold change vs veh, CCNY / RFU, UFL1 / Fold change vs veh, UFL1 / RFU, COG3 / Fold change vs veh, COG3 / RFU, DIAPH2 / Fold change vs veh, DIAPH2 / RFU, SKA2 / Fold change vs veh, SKA2 / RFU, AFF3 / Fold change vs veh, AFF3 / RFU, LMF1 / Fold change vs veh, LMF1 / RFU, IPO11 / Fold change vs veh, IPO11 / RFU, DFFB / Fold change vs veh, DFFB / RFU, FOXP1 / Fold change vs veh, FOXP1 / RFU, CARD8 / Fold change vs veh, CARD8 / RFU, STRN3 / Fold change vs veh, STRN3 / RFU, ADK / Fold change vs veh, ADK / RFU, RASSF2 / Fold change vs veh, RASSF2 / RFU, WIPF1 / Fold change vs veh, WIPF1 / RFU, LARP1B / Fold change vs veh, LARP1B / RFU, RASA1 / Fold change vs veh, RASA1 / RFU, RB1 / Fold change vs veh, RB1 / RFU, PPFIA1 / Fold change vs veh, PPFIA1 / RFU, MAT2A / Fold change vs veh, MAT2A / RFU, CCT5 / Fold change vs veh, CCT5 / RFU, WDR92 / Fold change vs veh, WDR92 / RFU, CUX1 / Fold change vs veh, CUX1 / RFU, TTC7A / Fold change vs veh, TTC7A / RFU, TMEM135 / Fold change vs veh, TMEM135 / RFU, DEPTOR / Fold change vs veh, DEPTOR / RFU, CPM / Fold change vs veh, CPM / RFU, DNAJB6 / Fold change vs veh, DNAJB6 / RFU, CACNA2D3 / Fold change vs veh, CACNA2D3 / RFU, DTX4 / Fold change vs veh, DTX4 / RFU, TFCP2 / Fold change vs veh, TFCP2 / RFU, GMCL1 /// GMCL1P1 / Fold change vs veh, GMCL1 /// GMCL1P1 / RFU, AEBP2 / Fold change vs veh, AEBP2 / RFU, SNHG1 /// SNORD22 /// SNORD25 /// SNORD26 /// SNORD27 /// SNORD28 /// SNORD29 /// SNORD31 / Fold change vs veh, SNHG1 /// SNORD22 /// SNORD25 /// SNORD26 /// SNORD27 /// SNORD28 /// SNORD29 /// SNORD31 / Fold change (Aza/veh), C12orf56 (ProbeSet 11735607_a_at) / Fold change (ACY-1035/veh), C12orf56 (ProbeSet 11735607_a_at) / Fold change (Aza/veh), FGFR1OP (ProbeSet 11751329_s_at) / Fold change (ACY-1035/veh), FGFR1OP (ProbeSet 11751329_s_at) / Fold change (Aza/veh), VPS36 (ProbeSet 11739960_a_at) / Fold change (ACY-1035/veh), VPS36 (ProbeSet 11739960_a_at) / RFU SYPL1 (11715823_x_at) / Fold change /veh SYPL1 (11715823_x_at) / RFU IGFBP7 (11715501_s_at) / Fold change /veh IGFBP7 (11715501_s_at) / RFU REEP3 (11722064_at) / Fold change /veh REEP3 (11722064_at) / RFU IGLL1 (11728026_x_at) / Fold change /veh IGLL1 (11728026_x_at): dose or concentration left out as unconfirmed
Details: ProbeSet 11748670_a_at; LIST B

Nc1ccc(-c2cccs2)cc1NC(=O)c1ccc2c(c1)cc(C1CC1)n2CCN1CCOCC1 [ACY-1035]
RFU, PIK3R1: 70.67 RFU
